According to EP0039857A1, “Preparation for the care of the skin” (Henkel Kommanditgesellschaft auf Aktien, priority 1980, dated 1981):

Columns and labels:
[1] = test system: Esterase aus Schweineleber (Carboxylic-esterhydrolase EC 3.1.1.1); test: Enzyme inhibition test, esterase (acidimetric comparison with control); format: biochemical, Schwein; details: 2 500 ppm test substance; substrate Citronensäuretriethylester; enzyme 1 mg in 16 ml
Description: (§1) Zur Feststellung der enzyminhibierenden Wirksamkeit wurde folgende Testmethodik verwendet. Es wurden jeweils 0,2 Mol in 10 bis 20 ml physiologischer NatriumchloridLösung Substrat eingesetzt. Als Testenzyme dienten: • Esterase aus Schweineleber (Carboxylic-esterhydrolase EC 3.1.1.1) • Spezifische Aktivität: circa 100 U/mg, Einsatzkonzentration: 1 mg in 16 ml Lösung. • Als Substrat diente Citronensäuretriethylester. • Lipase aus Rhizopus arrhizus (Triacylglyceroacylhydrolase EC 3.1.1.3) • Spezifische Aktivität: circa 1 200 U/mg, Einsatzkonzentration: 0,25 mg in 20 ml Lösung • Als Substrat diente Olivenöl. Zur Stabilisierung der Emulsion wurde Natriumdesoxycholat und Gummi arabicum verwendet. Die Hemmwerte wurden bestimmt durch azidimetrischen Vergleich der Kontrolle mit der durch die Prüfsubstanz gehemmten Reaktion und in % ausgedrückt. Als Konzentration für die Hemmsubstanzen wurden 2 500 ppm gewählt.

[2] = target: T1, Lipase aus Rhizopus arrhizus (Triacylglyceroacylhydrolase EC 3.1.1.3) (Rhizopus oryzae, UniProt P61872); test: Enzyme inhibition test, lipase (acidimetric comparison with control); format: biochemical; details: read-out: Hemmwerte in % gegen Lipase; for inhibition at 2500 ppm: substrate Olivenöl, enzyme 0,25 mg in 20 ml
T1 construct: Lipase aus Rhizopus arrhizus (Triacylglyceroacylhydrolase EC 3.1.1.3); host or cells: Rhizopus arrhizus (natural producer)
T1 sequence (P61872 96-392): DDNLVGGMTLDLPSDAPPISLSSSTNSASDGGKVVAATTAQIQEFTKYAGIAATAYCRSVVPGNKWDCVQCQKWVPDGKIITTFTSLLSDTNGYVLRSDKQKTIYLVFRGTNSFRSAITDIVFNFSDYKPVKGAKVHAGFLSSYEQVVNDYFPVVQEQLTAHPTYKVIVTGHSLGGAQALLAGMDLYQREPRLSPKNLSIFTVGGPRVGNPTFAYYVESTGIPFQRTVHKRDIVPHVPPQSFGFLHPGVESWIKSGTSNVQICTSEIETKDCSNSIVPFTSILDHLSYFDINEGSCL
Description: as §1

Hemmwerte in % gegen Esterase [1] [%] | inhibition at 2500 ppm [2] [%] | Structure (SMILES) | inhibition at 500 ppm [2] [%]
77 | 23 | CCN(CC)C(=O)Cc1ccc(Cl)cc1 [Produkt A, p-Chlorphenylacet-diethylamid] | 
57 | 12 | CCN(CC)C(=O)CC(c1ccccc1)c1ccccc1 [Produkt C, 3,3-Diphenyl-propionsäure-diethylamid] | 
30 | 59 | CCN(CC)C(=O)C(C)(C)Sc1ccc(Cl)cc1 [Produkt E, 2-(p-Chlor-phenylthio)-2-methylpropionsäure-diethylamid] | 
60 | 10 | CCN(CC)C(=O)Cc1ccc(OC)c(OC)c1 [Produkt B, 3,4-Dimethoxy-phenylacet-diethylamid] | 
65 | 10 | CCN(CC)C(=O)COc1ccc(Cl)cc1 [Produkt F, p-Chlor-phenoxyacet-diethylamid] | 
11 | 52 | CCN(CC)C(=O)C(C)(C)Oc1ccc(Cl)cc1 [Produkt D, 2-(p-Chlorphenoxy)-2-methylpropionsäure-diethylamid] | 
48 | 12 | CCN(CC)C(=O)COc1ccc(C)c(C)c1 [Produkt G, 3,4-Dimethyl-phenoxyacet-diethylamid] | 

Structure (SMILES) | Hemmwerte in % gegen Esterase [1] [%] | inhibition at 2500 ppm [2] [%] | inhibition at 500 ppm [2] [%]
CCOC(=O)C(O)(c1ccccc1)c1ccccc1 [Produkt H, Benzilsäure-ethylester] | 54 |  | 28
